Values joined by “and” are separate entries in the source; they are usually repeats but may differ in a detail not shown here. Equal values may be shown once.
What was measured:
[1] = Mean luminal disappearance of a duodenal AKG bolus; format: in vivo, pigs; conditions: duodenal bolus 1040 μmol/kg
Description: After 1 h, pigs were sacrificed.
The small intestine was carefully clamped at the proximal duodenum and distal ileum, removed and flushed with 2×50 mL of saline to wash the intestine.

[2] = remark: listed apart in the source
Excerpt: Female piglets (n=9) were purchased from the Texas Department of Criminal Justice, Huntsville, Tex.
Pigs (14 d of age) arrived at the Children's Nutrition Research Center and for a 7-day adjustment period were fed a liquid milk replacer diet (Litter Life, Merrick, Middleton, Wis.) at a rate of 50 g/(kg·d).
Briefly, under isoflurane anesthesia and aseptic conditions, the piglets were implanted with a polyethylene catheter (o.d., 1.27 mm, Becton Dickinson, Sparks, Md.) in the common portal vein, and silastic catheters (o.d., 1.78 mm) in an external jugular vein and a carotid artery.
An ultrasonic flow probe (8 to 10 mm i.d., Transonic, Ithaca, N.Y.) was placed around the portal vein.
A silicone catheter (o.d., 2.17 mm, Baxter Healthcare, McGaw Park, Ill.) was implanted into the lumen of the duodenum. The catheters were filled with sterile saline containing heparin (2.5×10^4 U/L), and exteriorized on either the left flank (portal and duodenal catheters, flow probe leads) or between the scapulae (jugular and carotid catheters).
For plasma amino acid analysis, a 0.2 mL aliquot of plasma was mixed with an equal volume of an aqueous solution of methionine sulfone (4 mmol/L) and centrifuged at 10,000×g for 120 min through a 10-kDa cutoff filter.
A 50 μL aliquot of the filtrate was dried and the amino acids were analyzed by reverse-phase HPLC of their phenylisothiocyanate derivatives (Pico Tag, Waters, Woburn, Mass.).
Plasma ammonia was determined using a spectrophotometric assay kit (171-C, Sigma-Aldrich, St. Louis, Mo.).
Plasma glucose was determined using a spectrophotometric assay kit (315-100; Sigma-Aldrich, St. Louis, Mo.).
Net portal balance of metabolites [μmol/(kg·h)] was calculated as follows:
(Conc.PORT−Conc.ART)×PBF (1)
when Conc. is the concentration in the blood (μmol/L), PORT and ART refer to portal and arterial blood and PBF is portal blood flow [L/(kg·h)].
Piglets were deprived of food for 15 h before initiation of the experiment.
On the day of the experiment, at time −1 h, a primed (7.75 mL/kg; 25% wt/wt aqueous solution; oral), continuous duodenal infusion of milk replacer [Litter Life, Merrick, Middleton, Wis.; 7.75 mL/(kg·h)] prepared as a 25% (wt/wt) aqueous solution which provided ˜920 kJ and 12.5 g protein/(kg·d).

[3] = AKG infusion 930 μmol/(kg·h), P<0.01
[4] = AKG treatment, P<0.05, data not shown
[5] = piglets, duodenal infusion 930 μmol/(kg·h) AKG (3.75% of diet dry matter), ± SEM
[6] = pigs, duodenal infusion 930 μmol/(kg·h) AKG, n = 5
[7] = pigs, duodenal infusion 930 μmol/(kg·h) AKG, n = 5, LSMean ± SEM

O=C(O)CCC(=O)C(=O)O [AKG, alpha-ketoglutaric acid]
Effect on production of CO2 in the whole body (AKG infusion): did not increase | Effect on NOLD (non-oxidative leucine disposal) vs control (AKG treatment, FIG. 1): not affected | Effect on Ra (leucine appearance rate) vs control (AKG treatment, FIG. 1): not affected | Effect on whole-body leucine oxidation vs control (AKG treatment, FIG. 1): not affected | Share of the AKG bolus disappeared from the lumen of the duodenum ([1]; 1 h): approximately 64% | Luminal disappearance as share of the 1040 μmol/kg of infused AKG ([1]; pigs, one hour): 63.8 | Effect on net portal appearance of glutamate ([2]; AKG infusion): not affected | Effect on net portal appearance of glutamine ([2]; AKG infusion): not affected | Effect on net portal balance of AKG vs control ([2]; AKG infusion 930 μmol/(kg·h)): increased | Effect on arterial AKG concentration vs control [2, 3]: increased | Effect on portal AKG concentration vs control [2, 3]: increased | Increase in proline net portal balance ([2]; AKG treated pigs vs control): 138.1 µmol/kg/h | Effect on ammonia net portal balance vs control ([2]; AKG treatment, duodenal infusion): not affected | Effect on net portal balance of glucose vs control ([2]; AKG treatment, duodenal infusion, P<0.05): decreased | Effect on portal mass balance of leucine vs control ([2]; AKG treatment, P<0.05): increased | Effect on portal mass balance of lysine vs control ([2]; AKG treatment, P<0.05): increased | Effect on portal mass balance of proline vs control ([2]; AKG treatment, P<0.05): increased | Effect on arterial concentration of proline vs control [2, 4]: increased | Effect on portal concentration of proline vs control [2, 4]: increased | Effect on portal mass balance of isoleucine vs control ([2]; AKG treatment, P<0.10): tended (P<0.10) to increase | Effect on portal leucine concentration vs control ([2]; AKG treatment, data not shown): tended (P<0.01) to be increased | AKG unaccounted for in the portal balance ([2]; duodenal infusion 930 μmol/(kg·h) AKG): over 800 μmol/(kg·h) | AKG net portal balance, % of infused ([2]; piglets, duodenal infusion 930 μmol/(kg·h) AKG): 10.23 % of infused and 10 % of infused and 10.23 ± 0.57 % of infused | AKG net portal balance [2, 5]: 95 µmol/kg/h and 95.2 ± 12 µmol/kg/h | Ammonia net portal balance [2, 5]: 561.1 ± 53 µmol/kg/h | Arterial AKG [2, 5]: 27.4 ± 3.6 µmol/L | Glucose net portal balance [2, 5]: 203.9 ± 69 mg/(kg · h) | Portal AKG [2, 5]: 64.6 ± 5.9 µmol/L | Net portal balance of Alanine, % of Intake [2, 6]: 189.0 % of Intake | Net portal balance of Arginine, % of Intake [2, 6]: 98.3 % of Intake | Net portal balance of Aspartate, % of Intake [2, 6]: 9.6 % of Intake | Net portal balance of Glutamate, % of Intake [2, 6]: 18.6 % of Intake | Net portal balance of Glycine, % of Intake [2, 6]: 116.0 % of Intake | Net portal balance of Histidine, % of Intake [2, 6]: 71.4 % of Intake | Net portal balance of Isoleucine, % of Intake [2, 6]: 140.0 % of Intake | Net portal balance of Leucine, % of Intake [2, 6]: 113.4 % of Intake | Net portal balance of Lysine, % of Intake [2, 6]: 98.8 % of Intake | Net portal balance of Phenylalanine, % of Intake [2, 6]: 98.7 % of Intake | Net portal balance of Proline, % of Intake [2, 6]: 114.5 % of Intake | Net portal balance of Serine, % of Intake [2, 6]: 108.3 % of Intake | Net portal balance of Threonine, % of Intake [2, 6]: 75.7 % of Intake | Net portal balance of Tyrosine, % of Intake [2, 6]: 135.9 % of Intake | Net portal balance of Valine, % of Intake [2, 6]: 108.9 % of Intake | Net portal balance of Alanine [2, 7]: 557.8 ± 48 µmol/kg/h | Net portal balance of Arginine [2, 7]: 109.0 ± 19 µmol/kg/h | Net portal balance of Asparagine [2, 7]: 185.6 ± 18 µmol/kg/h | Net portal balance of Aspartate [2, 7]: 29.7 ± 6.0 µmol/kg/h | Net portal balance of Glutamate [2, 7]: 80.1 ± 17 µmol/kg/h | Net portal balance of Glutamine [2, 7]: 25.5 ± 45 µmol/kg/h | Net portal balance of Glycine [2, 7]: 177.2 ± 20 µmol/kg/h | Net portal balance of Histidine [2, 7]: 45.9 ± 3.8 µmol/kg/h | Net portal balance of Phenylalanine [2, 7]: 95.2 ± 11 µmol/kg/h | Net portal balance of Serine [2, 7]: 244.7 ± 64 µmol/kg/h | Net portal balance of Threonine [2, 7]: 210.9 ± 18 µmol/kg/h | Net portal balance of Tryptophan [2, 7]: 47.2 ± 4.3 µmol/kg/h | Net portal balance of Tyrosine [2, 7]: 115.8 ± 17 µmol/kg/h | Net portal balance of Valine [2, 7]: 279.3 ± 32 µmol/kg/h
